Test results taken from patent US20260232767A1, “INTERLEUKIN-23 RECEPTOR ANTAGONIST PEPTIDES FOR USE IN THE TREATMENT OF PSORIASIS” (Janssen Pharmaceutica NV, priority 2023, published 2026).

Tested on: subjects with moderate-to-severe plaque psoriasis
Assay: PASI response, Example 1 16-week dose-ranging study
Format: in vivo, human
Conditions: for Subjects achieving PASI 75: Week 4
Protocol: The Psoriasis Area and Severity Index (PASI) is a system used for assessing and grading the severity of psoriatic lesions and their response to therapy. In the PASI system, the body is divided into four regions: the head, trunk, upper extremities, and lower extremities. Each of these areas is assessed and scored separately for erythema, induration, and scaling, which are each rated on a scale of 0 to 4 and extent of involvement on a scale of 0 to 6. The PASI produces a numeric score (a “PASI score”) that can range from 0 to 72. A higher score indicates more severe disease.
This was a randomized, double-blind, placebo-controlled, dose-ranging, parallel group, multicenter, interventional study in subjects with moderate-to-severe plaque psoriasis. A target of 240 subjects were enrolled in this study with 40 subjects planned per intervention group.
Clinician-reported outcomes including Psoriasis Area and Severity Index (PASI), Body Surface Area (BSA), Investigator's Global Assessment (IGA), Nail Psoriasis Area and Severity Index (NAPSI), Fingernail Physician's Global Assessment (f-PGA), Static Physician's Global Assessment of Genitalia (s-PGA-G), Physician's Global Assessment of Hands and/or Feet (hf-PGA), and Scalp Specific Investigator Global Assessment (ss-IGA) were obtained at Week 0, 8, and 16. PASI and IGA were also obtained at Weeks 1, 2, 4, and 12, and at Week 20, four weeks after the administration of the tablets has stopped.
The primary efficacy endpoint was the proportion of participants achieving a PASI 75 response at Week 16, defined as at least a 75% reduction from baseline in PASI total score.
For the primary analysis, composite strategy (non-responder imputation) was applied to address intercurrent event #1 (Discontinuation of study intervention due to lack of efficacy or due to an AE of worsening of psoriasis) and #2 (initiation of a protocol-prohibited medication or therapy that could improve psoriasis); and treatment policy strategy (observed data) was applied to intercurrent event #3 (Discontinuation of study intervention due to other reasons). Participants with missing data after application of ICEs are also considered as non-responders.
In addition to the response analysis, pairwise comparisons of each treatment group versus the placebo group were performed for the primary endpoint of PASI 75 at Week 16. Pairwise comparisons were not adjusted for multiplicity. The Cochran-Mantel-Haenszel chi-square statistic stratified by baseline weight category (≤90 kg, >90 kg) at a 2-sided significance level of 0.05 was used (Table 2).

[1] = 25 mg QD, Week 16, trough plasma conc ≥Q3
[2] = 50 mg QD, Week 16, peak plasma conc. <Q1, N=2
[3] = 50 mg QD, Week 16, peak plasma conc. Q1 to <Q2, N=2
[4] = 50 mg QD, Week 16, peak plasma conc. Q2 to <Q3, N=2
[5] = 50 mg QD, Week 16, peak plasma conc. ≥Q3, N=2
[6] = 50 mg QD, Week 16, trough plasma conc <Q1
[7] = 50 mg QD, Week 16, trough plasma conc Q1 to <Q2
[8] = 50 mg QD, Week 16, trough plasma conc Q2 to <Q3
[9] = 50 mg QD, Week 16, trough plasma conc ≥Q3
[10] = 100 mg BID, Week 16, peak plasma conc. <Q1, N=2
[11] = 100 mg BID, Week 16, peak plasma conc. Q1 to <Q2, N=3
[12] = 100 mg BID, Week 16, peak plasma conc. Q2 to <Q3, N=2
[13] = 100 mg BID, Week 16, peak plasma conc. ≥Q3, N=3
[14] = 100 mg BID, Week 16, trough plasma conc <Q1

CC(=O)NCCCC[C@@H]1NC(=O)[C@H](Cc2c[nH]c3c(C)cccc23)NC(=O)[C@H]([C@@H](C)O)NC(=O)[C@H](CC(N)=O)NC(=O)[C@@H](NC(C)=O)C(C)(C)SSC(C)(C)[C@@H](C(=O)N[C@@H](Cc2ccc(OCCN)cc2)C(=O)N[C@@H](Cc2ccc3ccccc3c2)C(=O)NC2(C(=O)N[C@@H](CCC(=O)O)C(=O)N[C@@H](CC(N)=O)C(=O)N[C@@H](Cc3cccnc3)C(=O)N(C)CC(N)=O)CCOCC2)NC1=O [IL-23 receptor antagonist peptide, Ac-[Pen]*-N-T-[W(7-Me)]-[Lys(Ac)]-[Pen]*-Phe[4-(2-aminoethoxy)]-[2-Nal]-[THP]-E-N-[3-Pal]-Sarc-NH2 (*[Pen]-[Pen]* formdisulfidebond)]
PASI 100% Improvement, subjects [1]: 1 (16.7%)
PASI ≥75% Improvement, subjects [1]: 3 (50.0%)
PASI ≥90% Improvement, subjects [1]: 1 (16.7%)
Subjects achieving PASI 75 (50 mg QD): 16.3%
PASI 75 treatment difference vs placebo (50 mg QD, Week 16): 48.8%
PASI 90 treatment difference vs placebo (50 mg QD, Week 16): 48.8% (33.3%,
PASI 100 treatment difference vs placebo (50 mg QD, Week 16): 25.6% (12.7%,
Subjects achieving PASI 90 (50 mg QD, Week 16): 22 (51.2%)
Subjects achieving PASI 100 (50 mg QD, Week 16): 11 (25.6%)
PASI 75, % (50 mg QD, Week 16, N=43): 58.1%
PASI 90, % (50 mg QD, Week 16, N=43): 51.2%
PASI 100, % (50 mg QD, Week 16, N=43): 25.6%
PASI 100% Improvement, n subjects [2]: 0
PASI ≥75% Improvement, % subjects [2]: (50.0%)
PASI ≥75% Improvement, n subjects [2]: 1
PASI ≥90% Improvement, n subjects [2]: 0
PASI 100% Improvement, % subjects [3]: (50.0%)
PASI 100% Improvement, n subjects [3]: 1
PASI ≥75% Improvement, % subjects [3]: (100.0%)
PASI ≥75% Improvement, n subjects [3]: 2
PASI ≥90% Improvement, % subjects [3]: (100.0%)
PASI ≥90% Improvement, n subjects [3]: 2
PASI 100% Improvement, n subjects [4]: 0
PASI ≥75% Improvement, % subjects [4]: (50.0%)
PASI ≥75% Improvement, n subjects [4]: 1
PASI ≥90% Improvement, % subjects [4]: (50.0%)
PASI ≥90% Improvement, n subjects [4]: 1
PASI 100% Improvement, n subjects [5]: 0
PASI ≥75% Improvement, % subjects [5]: (100.0%)
PASI ≥75% Improvement, n subjects [5]: 2
PASI ≥90% Improvement, % subjects [5]: (100.0%)
PASI ≥90% Improvement, n subjects [5]: 2
PASI 100% Improvement, subjects [6]: 1 (20.0%)
PASI ≥75% Improvement, subjects [6]: 2 (40.0%)
PASI ≥90% Improvement, subjects [6]: 1 (20.0%)
PASI 100% Improvement, subjects [7]: 2 (40.0%)
PASI ≥75% Improvement, subjects [7]: 3 (60.0%)
PASI ≥90% Improvement, subjects [7]: 3 (60.0%)
PASI 100% Improvement, subjects [8]: 2 (40.0%)
PASI ≥75% Improvement, subjects [8]: 3 (60.0%)
PASI ≥90% Improvement, subjects [8]: 2 (40.0%)
PASI 100% Improvement, subjects [9]: 1 (20.0%)
PASI ≥75% Improvement, subjects [9]: 3 (60.0%)
PASI ≥90% Improvement, subjects [9]: 3 (60.0%)
Subjects achieving PASI 75 (100 mg BID): 23.8%
Subjects achieving PASI 100 (100 mg BID, Week 8): 11.9%
PASI 75 treatment difference vs placebo (100 mg BID, Week 16): 69.4%
PASI 90 treatment difference vs placebo (100 mg BID, Week 16): 57.3% (42.0%,
PASI 100 treatment difference vs placebo (100 mg BID, Week 16): 40.5% (25.8%,
Subjects achieving PASI 90 (100 mg BID, Week 16): (59.5%)
PASI 75, % (100 mg BID, Week 16, N=42): 78.6%
PASI 90, % (100 mg BID, Week 16, N=42): 59.5%
PASI 100, % (100 mg BID, Week 16, N=42): 40.5%
PASI 100% Improvement, % subjects [10]: (50.0%)
PASI 100% Improvement, n subjects [10]: 1
PASI ≥75% Improvement, n subjects [10]: 2
PASI ≥90% Improvement, % subjects [10]: (100.0%)
PASI ≥90% Improvement, n subjects [10]: 2
PASI 100% Improvement, % subjects [11]: (33.3%)
PASI 100% Improvement, n subjects [11]: 1
PASI ≥75% Improvement, n subjects [11]: 3
PASI ≥90% Improvement, % subjects [11]: (100.0%)
PASI ≥90% Improvement, n subjects [11]: 3
PASI 100% Improvement, % subjects [12]: (50.0%)
PASI 100% Improvement, n subjects [12]: 1
PASI ≥75% Improvement, n subjects [12]: 1
PASI ≥90% Improvement, % subjects [12]: (50.0%)
PASI ≥90% Improvement, n subjects [12]: 1
PASI 100% Improvement, % subjects [13]: (66.7%)
PASI 100% Improvement, n subjects [13]: 2
PASI ≥75% Improvement, n subjects [13]: 3
PASI ≥90% Improvement, % subjects [13]: (66.7%)
PASI ≥90% Improvement, n subjects [13]: 2
PASI 100% Improvement, subjects [14]: 1 (25.0%)
PASI ≥75% Improvement, subjects [14]: 3 (75.0%)
PASI ≥90% Improvement, subjects [14]: 50.0%
